Assay results from patent US12018021B2 (UCB Biopharma SRL, priority 2018, dated 2024).
pIC50: −log10 of the molar value. Where a name gives a salt, the structure may show the parent alone.

The compounds below were run against IgE-Tb / FcεRIα-Y131A-AF488 (Homo sapiens, UniProt P01854) (assay: IgE-Tb / FcεRIα-Y131A-AF488 FRET assay (protocol for examples 1 to 233)). Conditions: examples 1 to 233: 5 nM IgE-Tb, 25 nM FcεRIα-Y131A-AF488, incubated 2 hours at room temperature; read-out: Y131A FRET IC50 range.
Sequence of IgE-Tb / FcεRIα-Y131A-AF488 (P01854 1-427 limits assumed, stated change not applied): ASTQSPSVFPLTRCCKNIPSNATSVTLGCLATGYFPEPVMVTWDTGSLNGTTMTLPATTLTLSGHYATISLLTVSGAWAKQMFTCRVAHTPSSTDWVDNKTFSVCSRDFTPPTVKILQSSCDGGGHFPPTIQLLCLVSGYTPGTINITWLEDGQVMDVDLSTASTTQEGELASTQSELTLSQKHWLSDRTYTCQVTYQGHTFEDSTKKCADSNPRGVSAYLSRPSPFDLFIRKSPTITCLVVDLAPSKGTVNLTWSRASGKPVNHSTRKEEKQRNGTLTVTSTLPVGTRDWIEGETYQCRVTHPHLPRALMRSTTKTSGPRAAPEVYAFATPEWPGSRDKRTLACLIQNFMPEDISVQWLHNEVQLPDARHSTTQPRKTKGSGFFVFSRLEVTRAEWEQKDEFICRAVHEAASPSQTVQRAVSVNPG
Assay type: binding
Procedure: For examples 1 to 233, the assay was conducted according to the following: Each assay reaction was conducted in a volume of 25 μl in a 384-well half-volume plate. 10 point compound serial dilutions (3-fold) were generated in DMSO at a concentration of ×50 that of the final assay concentration (FAC). Compound solutions were then prepared by IgE-Tb diluting 10-fold in assay buffer. For the assay, 5 μl of diluted compound was added to 10 μl of, followed by addition of 10 μl FcεRIα-Y131A-AF488. FRET reagents FACs were 5 nM IgE-Tb, 25 nM FcεRIα-Y131A-AF488. Usually the top FAC of compound in the assay was 10 μM. The final DMSO concentration was 2%. The minimum signal (MIN) was measured by adding 5l unlabelled FcεRIα at 1 μM (FAC=200 nM) to the FRET reagents. The maximum FRET signal (MAX) was measured in wells containing FRET reagents but no compound. The assay was incubated for 2 hours at room temperature, protected from light and evaporation, and with gentle agitation.
Measurement of FRET for each well was carried out by exciting at 330 nm and measuring emission at 495/520 nm using an Envision plate reader (Perkin Elmer). FRET ratio was calculated as follows: Emission at 520/Emission at 495×1000.
The FRET ratio was used for the data analysis.
Z′ was calculated as follows (σ=standard deviation and μ=mean): 1−((3×σMAX)+(3×σMIN))/(μMAX−μMIN)
Z′ above 0.5 was considered a good assay.
Background signal (MIN) was subtracted from all wells. Using the background subtracted values, the percent inhibition by compound in each test-well was calculated as follows: 100−Test-well FRET ratio/MAX FRET ratio×100.
Percent inhibition was plotted against compound concentration. IC50 values for each compound were determined using four parameter logistic fit model using the XLFIT5 software package.

`O=C(NCC1CC1)c1c(NC(=O)C2CC2)sc2c1C[C@@H](n1cnnc1Nc1ccncc1)CC2` [Example 115, (5S)-2-(Cyclopropanecarbonylamino)-N-(cyclopropylmethyl)-5-[3-(4-pyridylamino)-1,2,4-triazo-4-yl]-4,5,6,7-tetrahydrobenzothiophene-3-carboxamide] and `Cn1nccc1Nc1nncn1[C@H]1CCc2sc(NC(=O)C3CC3)c(C(=O)NCC3CC3)c2C1` [Example 224, (5S)-2-(cyclopropanecarbonylamino)-N-(cyclopropylmethyl)-5-[3-[(2-methylpyrazol-3-yl)amino]-1,2,4-triazol-4-yl]-4,5,6,7-tetrahydrobenzothiophene-3-carboxamide] cannot be ordered by pIC50: greater than 6.00 for the first, greater than 6.00 for the second.

`CCCCS(=N)(=O)c1c(NC(=O)C2CC2)sc2c1CCCC2` (centres unmarked) [Example 38, N-[3-(Butylsulfonimidoyl)-4,5,6,7-tetrahydrobenzothiophen-2-yl]cyclopropanecarboxamide] and `CS(=N)(=O)NC1CCc2sc(NC(=O)C3CC3)c(C(=O)NCC3CC3)c2C1` (centres unmarked) [Example 196, 2-(Cyclopropanecarbonylamino)-N-(cyclopropylmethyl)-5-[(methylsulfonimidoyl)amino]-4,5,6,7-tetrahydrobenzothiophene-3-carboxamide] fall in the same range of pIC50: 5.00 to 6.00 for the first, 5.00 to 6.00 for the second.

First: CCNC(=O)C1CCc2sc(NC(=O)C3CC3)c(S(=O)(=O)NCC(C)C)c2C1 (centres unmarked) [Example 28, 2-(Cyclopropanecarbonylamino)-N-ethyl-3-(isobutylsulfamoyl)-4,5,6,7-tetrahydrobenzothiophene-5-carboxamide]
Second: CC(C)NS(=O)(=O)NC1CCc2sc(NC(=O)C3CC3)c(C(=O)NCC3CC3)c2C1 (centres unmarked) [Example 204, 2-(Cyclopropanecarbonylamino)-N-(cyclopropylmethyl)-5-(isopropylsulfamoylamino)-4,5,6,7-tetrahydrobenzothiophene-3-carboxamide]
The pIC50 of the first is higher: greater than 6.00 for the first, 5.00 to 6.00 for the second. The first is the more potent here.

`Cn1nc(C2CC2)cc1Nc1nncn1[C@H]1CCc2sc(NC(=O)C3CC3)c(C(=O)NCC3CC3)c2C1` [Example 219, (5S)-2-(cyclopropanecarbonylamino)-N-(cyclopropylmethyl)-5-[3-[(5-cyclopropyl-2-methyl-pyrazol-3-yl)amino]-1,2,4-triazol-4-yl]-4,5,6,7-tetrahydrobenzothiophene-3-carboxamide] and `Cc1cc(Nc2nncn2[C@H]2CCc3sc(NC(=O)C4CC4)c(C(=O)NCC4CC4)c3C2)n(C)n1` [Example 106, (5S)-2-(Cyclopropanecarbonylamino)-N-(cyclopropylmethyl)-5-[3-[(2,5-dimethylpyrazol-3-yl)amino]-1,2,4-triazol-4-yl]-4,5,6,7-tetrahydrobenzothiophene-3-carboxamide] cannot be ordered by pIC50: greater than 6.00 for the first, greater than 6.00 for the second.

First: CONC(=NC#N)NC1CCc2sc(NC(=O)C3CC3)c(C(=O)NCC3CC3)c2C1 (centres unmarked) [Example 208, 5-[[N′-Cyano-N-methoxy-carbamimidoyl]amino]-2-(cyclopropanecarbonylamino)-N-(cyclopropylmethyl)-4,5,6,7-tetrahydrobenzothiophene-3-carboxamide]
Second: N#CN=C(NC1CCc2sc(NC(=O)C3CC3)c(C(=O)NCC3CC3)c2C1)NN1CCOCC1 (centres unmarked) [Example 205, 5-[[N′-Cyano-N-morpholino-carbamimidoyl]amino]-2-(cyclopropanecarbonylamino)-N-(cyclopropylmethyl)-4,5,6,7-tetrahydrobenzothiophene-3-carboxamide]
The pIC50 of the first is higher: greater than 6.00 for the first, 5.00 to 6.00 for the second. The first is the more potent here.

First: COc1ccc(NC(=O)NC2CCc3sc(NC(=O)C4CC4)c(C(=O)NCC(C)C)c3C2)cc1 (centres unmarked) [Example 209, 2-(Cyclopropanecarbonylamino)-N-isobutyl-5-[(4-methoxyphenyl)carbamoylamino]-4,5,6,7-tetrahydrobenzothiophene-3-carboxamide]
Second: Cc1ccc(NC(=Nc2ccn(C)n2)NC2CCc3sc(NC(=O)C4CC4)c(C(=O)NCC4CC4)c3C2)cc1 (centres unmarked) [Example 177, 2-(Cyclopropanecarbonylamino)-N-(cyclopropylmethyl)-5-[[N′-(1-methylpyrazol-3-yl)-N-(p-tolyl)carbamimidoyl]amino]-4,5,6,7-tetrahydrobenzothiophene-3-carboxamide; formic acid]
The pIC50 of the first is higher: greater than 6.00 for the first, 5.00 to 6.00 for the second. The first is the more potent here.

First: CCNC(=NC#N)N(C)[C@H]1CCc2sc(NC(=O)C3CC3)c(C(=O)NCC3CC3)c2C1 [Example 136, (5S)-5-[(N′-cyano-N-ethyl-carbamimidoyl)-methyl-amino]-2-(cyclopropanecarbonylamino)-N-(cyclopropylmethyl)-4,5,6,7-tetrahydrobenzothiophene-3-carboxamide]
Second: O=C(NCC1CC1)c1c(NC(=O)C2CC2)sc2c1C[C@H](C(F)(F)F)CC2 [Example 66, (5R)-2-(Cyclopropanecarbonylamino)-N-(cyclopropylmethyl)-5-(trifluoromethyl)-4,5,6,7-tetrahydrobenzothiophene-3-carboxamide]
The pIC50 of the first is higher: greater than 6.00 for the first, 5.00 to 6.00 for the second. The first is the more potent here.

`COc1nn(C)cc1Nc1nncn1[C@H]1CCc2sc(NC(=O)C3CC3)c(C(=O)NCC3CC3)c2C1` [Example 227, (5S)-2-(cyclopropanecarbonylamino)-N-(cyclopropylmethyl)-5-[3-[(3-methoxy-1-methy-pyrazol-4-yl)amino]-1,2,4-triazol-4-yl]-4,5,6,7-tetrahydrobenzothiophene-3-carboxamide] and `Cc1cnc(Nc2nncn2C2CCc3sc(NC(=O)C4CC4)c(C(=O)NCC4CC4)c3C2)c(C)n1` (stereo in doubt) [Example 178, (5S)-2-(Cyclopropanecarbonylamino)-N-(cyclopropylmethyl)-5-[3-[(3,5-dimethylpyrazin-2-yl)amino]-1,2,4-triazol-4-yl]-4,5,6,7-tetrahydrobenzothiophene-3-carboxamide] cannot be ordered by pIC50: greater than 6.00 for the first, greater than 6.00 for the second.

`O=C(NCC1CC1)c1c(NC(=O)C2CC2)sc2c1C[C@@H](Nc1ncc[nH]1)CC2` [Example 166, (5S)-2-(Cyclopropanecarbonylamino)-N-(cyclopropylmethyl)-5-(1H-imidazol-2-ylamino)-4,5,6,7-tetrahydrobenzothiophene-3-carboxamide] and `O=C(NCC1CC1)c1c(NC(=O)C2CC2)sc2c1CC(Nc1ncc3ccccc3n1)CC2` (centres unmarked) [Example 182, 2-(Cyclopropanecarbonylamino)-N-(cyclopropylmethyl)-5-(quinazolin-2-ylamino)-4,5,6,7-tetrahydrobenzothiophene-3-carboxamide] cannot be ordered by pIC50: greater than 6.00 for the first, greater than 6.00 for the second.

`CCOC(=O)c1c(NC(=O)C2CC2)sc2c1CCCC2O` (centres unmarked) [Example 103, Ethyl 2-(cyclopropanecarbonylamino)-7-hydroxy-4,5,6,7-tetrahydrobenzothiophene-3-carboxylate] and `O=C(NCC1CC1)c1c(NC(=O)C2CC2)sc2c1CNCC2` [Example 3, 2-(Cyclopropanecarbonylamino)-N-(cyclopropylmethyl)-4,5,6,7-tetrahydrothieno[3,2-c]pyridine-3-carboxamide; hydrochloride] fall in the same range of pIC50: 4.30 to 5.00 for the first, 4.30 to 5.00 for the second.

Compared with `O=C(NCC1CC1)c1c(NC(=O)C2CC2)sc2c1CN(C(=O)Cc1ccccc1)CC2` [Example 9, 2-(Cyclopropanecarbonylamino)-N-(cyclopropylmethyl)-5-(2-phenylacetyl)-6,7-dihydro-4H-thieno[3,2-c]pyridine-3-carboxamide], `NC(=O)c1ncn([C@H]2CCc3sc(NC(=O)C4CC4)c(C(=O)NCC4CC4)c3C2)c1N` [Example 154, 5-amino-1-[(5S)-2-cyclopropaneamido-3-[(cyclopropylmethyl)carbamoyl]-4,5,6,7-tetrahydro-1-benzothiophen-5-yl]-1H-imidazole-4-carboxamide] is higher in pIC50: 4.30 to 5.00 for the first, greater than 6.00 for the second. The second is the more potent here.

First: O=C(NCC1CC1)c1c(NC(=O)C2CC2)sc2c1C[C@@H](Nc1nccn1-c1cccnc1)CC2 [Example 170, (5S)-2-(Cyclopropanecarbonylamino)-N-(cyclopropylmethyl)-5-[[1-(3-pyridyl)imidazol-2-yl]amino]-4,5,6,7-tetrahydrobenzothiophene-3-carboxamide]
Second: CCNc1nccn1[C@H]1CCc2sc(NC(=O)C3CC3)c(C(=O)NCC3CC3)c2C1 [Example 147, (5S)-2-(Cyclopropanecarbonylamino)-N-(cyclopropylmethyl)-5-[2-(ethylamino)imidazol-1-yl]-4,5,6,7-tetrahydrobenzothiophene-3-carboxamide]
The pIC50 of the first is lower: 5.00 to 6.00 for the first, greater than 6.00 for the second.

`N#Cc1ncn([C@H]2CCc3sc(NC(=O)C4CC4)c(C(=O)NCC4CC4)c3C2)c1N` [Example 104, (5S)-5-(5-Amino-4-cyano-imidazol-1-yl)-2-(cyclopropanecarbonylamino)-N-(cyclopropylmethyl)-4,5,6,7-tetrahydrobenzothiophene-3-carboxamide] and `Cc1cc(NC(=S)N[C@H]2CCc3sc(NC(=O)C4CC4)c(C(=O)NCC4CC4)c3C2)n(C)n1` [Example 131, (5S)-2-(Cyclopropanecarbonylamino)-N-(cyclopropylmethyl)-5-[(2,5-dimethylpyrazol-3-yl)carbamothioylamino]-4,5,6,7-tetrahydrobenzothiophene-3-carboxamide] cannot be ordered by pIC50: greater than 6.00 for the first, greater than 6.00 for the second.
